Laboratory results reported in patent US20240400577A1, “MODULATORS OF PROTEIN KINASES” (VIBLIOME THERAPEUTICS, LLC, priority 2021, published 2024).

Legend:
Test in all cases: Kinase panel enzymatic inhibition assay (Nanosyn)
Assay type in all cases: biochemical
JAK3 = target: T1, JAK3 (Homo sapiens, UniProt P52333); conditions: ATP at Km; 30-minute pre-incubation; read-out: kinase inhibition in terms of IC50, JAK3
T1 construct: Nanosyn (contract laboratory that ran the panel)
T1 sequence (P52333 1-1124): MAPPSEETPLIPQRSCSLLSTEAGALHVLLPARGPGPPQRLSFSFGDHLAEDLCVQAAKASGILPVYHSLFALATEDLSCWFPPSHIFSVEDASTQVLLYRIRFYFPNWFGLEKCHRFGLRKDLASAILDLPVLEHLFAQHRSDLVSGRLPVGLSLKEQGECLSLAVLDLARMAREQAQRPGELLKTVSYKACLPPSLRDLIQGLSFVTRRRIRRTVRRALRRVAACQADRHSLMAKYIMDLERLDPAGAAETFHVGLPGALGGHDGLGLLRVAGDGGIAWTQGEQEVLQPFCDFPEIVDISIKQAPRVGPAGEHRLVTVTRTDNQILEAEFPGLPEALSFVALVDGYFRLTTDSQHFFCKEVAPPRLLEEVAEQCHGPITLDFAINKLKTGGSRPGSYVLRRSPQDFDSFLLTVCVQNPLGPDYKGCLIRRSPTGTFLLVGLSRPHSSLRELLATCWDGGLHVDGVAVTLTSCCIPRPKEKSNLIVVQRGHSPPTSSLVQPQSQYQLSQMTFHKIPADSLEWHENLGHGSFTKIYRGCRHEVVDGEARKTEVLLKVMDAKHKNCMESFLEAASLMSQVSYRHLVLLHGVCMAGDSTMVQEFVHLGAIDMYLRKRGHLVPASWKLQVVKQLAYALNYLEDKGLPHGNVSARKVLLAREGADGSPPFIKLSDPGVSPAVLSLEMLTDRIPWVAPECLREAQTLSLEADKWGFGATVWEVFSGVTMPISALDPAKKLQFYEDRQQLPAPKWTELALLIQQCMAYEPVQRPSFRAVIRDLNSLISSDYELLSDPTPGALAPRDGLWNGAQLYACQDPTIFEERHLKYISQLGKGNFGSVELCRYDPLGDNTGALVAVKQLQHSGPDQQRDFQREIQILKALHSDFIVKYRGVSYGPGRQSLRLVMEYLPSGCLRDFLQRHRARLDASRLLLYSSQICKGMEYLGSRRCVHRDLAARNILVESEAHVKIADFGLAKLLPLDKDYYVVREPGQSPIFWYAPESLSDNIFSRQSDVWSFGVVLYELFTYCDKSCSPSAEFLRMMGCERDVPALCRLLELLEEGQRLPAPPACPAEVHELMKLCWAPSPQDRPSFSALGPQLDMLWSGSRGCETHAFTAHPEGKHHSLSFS
Procedure, shortened: (§1)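 Single-point screen: compound 5 μM, ATP at Km per kinase, 30 min pre-incubation. Readout by mobility shift (Caliper LabChip), ADP detection or TR-fluorescence. Reported as % inhibition or IC50.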

MER = target: T2, MER (Homo sapiens, UniProt Q12866); conditions: ATP at Km; 30-minute pre-incubation; read-out: kinase inhibition in terms of IC50, MER
T2 construct: Nanosyn (contract laboratory that ran the panel)
T2 sequence (Q12866 21-999): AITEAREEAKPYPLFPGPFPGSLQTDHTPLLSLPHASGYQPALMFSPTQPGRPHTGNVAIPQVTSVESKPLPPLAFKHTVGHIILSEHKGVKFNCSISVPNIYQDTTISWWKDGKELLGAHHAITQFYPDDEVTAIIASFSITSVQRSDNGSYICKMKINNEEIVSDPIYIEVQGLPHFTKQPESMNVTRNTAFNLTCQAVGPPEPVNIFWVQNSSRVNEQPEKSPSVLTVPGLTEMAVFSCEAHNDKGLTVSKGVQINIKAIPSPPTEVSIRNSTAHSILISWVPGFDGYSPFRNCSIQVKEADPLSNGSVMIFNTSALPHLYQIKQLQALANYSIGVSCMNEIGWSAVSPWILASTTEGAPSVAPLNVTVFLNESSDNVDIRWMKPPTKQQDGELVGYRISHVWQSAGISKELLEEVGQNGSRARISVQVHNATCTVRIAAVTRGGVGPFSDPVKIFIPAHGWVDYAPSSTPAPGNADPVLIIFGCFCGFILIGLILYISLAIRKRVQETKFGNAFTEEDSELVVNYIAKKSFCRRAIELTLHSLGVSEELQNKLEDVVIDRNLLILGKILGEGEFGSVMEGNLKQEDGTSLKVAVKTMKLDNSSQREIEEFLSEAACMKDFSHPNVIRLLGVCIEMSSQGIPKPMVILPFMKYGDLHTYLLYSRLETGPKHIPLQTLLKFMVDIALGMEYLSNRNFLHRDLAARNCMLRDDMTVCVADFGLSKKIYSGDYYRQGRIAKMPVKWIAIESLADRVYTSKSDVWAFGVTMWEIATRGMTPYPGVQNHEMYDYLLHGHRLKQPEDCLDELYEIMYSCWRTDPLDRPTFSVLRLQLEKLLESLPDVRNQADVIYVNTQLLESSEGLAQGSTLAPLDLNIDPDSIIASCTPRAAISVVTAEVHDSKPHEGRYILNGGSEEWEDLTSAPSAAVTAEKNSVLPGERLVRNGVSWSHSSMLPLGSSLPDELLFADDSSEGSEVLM
Procedure, shortened: as §1

TYK2 = target: T3, TYK2 (Homo sapiens, UniProt P29597); conditions: ATP at Km; 30-minute pre-incubation; read-out: kinase inhibition in terms of IC50, TYK2
T3 construct: purchased Nanosyn
T3 sequence (P29597 whole entry): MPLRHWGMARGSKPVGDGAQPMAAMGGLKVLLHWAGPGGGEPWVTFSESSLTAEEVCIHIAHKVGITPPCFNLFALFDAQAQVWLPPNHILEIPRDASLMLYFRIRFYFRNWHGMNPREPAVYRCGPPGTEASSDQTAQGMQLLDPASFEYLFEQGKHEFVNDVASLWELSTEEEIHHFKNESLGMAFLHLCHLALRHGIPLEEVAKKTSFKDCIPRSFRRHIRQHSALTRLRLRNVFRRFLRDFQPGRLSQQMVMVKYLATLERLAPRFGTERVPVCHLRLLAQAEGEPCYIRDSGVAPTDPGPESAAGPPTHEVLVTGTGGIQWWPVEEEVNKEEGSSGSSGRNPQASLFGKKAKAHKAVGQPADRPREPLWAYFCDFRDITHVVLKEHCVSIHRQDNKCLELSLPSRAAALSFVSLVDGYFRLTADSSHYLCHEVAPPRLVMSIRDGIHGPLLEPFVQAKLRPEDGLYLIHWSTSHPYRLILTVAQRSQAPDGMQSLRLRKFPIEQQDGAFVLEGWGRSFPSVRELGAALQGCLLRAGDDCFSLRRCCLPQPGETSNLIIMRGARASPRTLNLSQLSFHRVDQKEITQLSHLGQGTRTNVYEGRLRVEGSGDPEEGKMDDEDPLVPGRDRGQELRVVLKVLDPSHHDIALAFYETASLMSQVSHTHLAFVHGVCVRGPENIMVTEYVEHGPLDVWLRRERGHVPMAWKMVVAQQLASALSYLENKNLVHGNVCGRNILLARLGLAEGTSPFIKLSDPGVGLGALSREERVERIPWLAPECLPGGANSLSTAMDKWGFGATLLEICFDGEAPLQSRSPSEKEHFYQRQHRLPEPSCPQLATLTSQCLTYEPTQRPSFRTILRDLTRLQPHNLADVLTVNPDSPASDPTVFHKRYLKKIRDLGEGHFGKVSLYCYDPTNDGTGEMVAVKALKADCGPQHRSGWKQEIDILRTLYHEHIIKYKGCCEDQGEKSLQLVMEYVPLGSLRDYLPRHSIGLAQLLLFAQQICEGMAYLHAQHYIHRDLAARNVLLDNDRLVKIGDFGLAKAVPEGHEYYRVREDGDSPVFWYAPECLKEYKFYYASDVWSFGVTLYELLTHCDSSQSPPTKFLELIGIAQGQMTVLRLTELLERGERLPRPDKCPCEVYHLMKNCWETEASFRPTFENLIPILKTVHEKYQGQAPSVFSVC
Procedure, shortened: as §1

With COc1cc2nccc(Oc3ccc(NC(=O)c4cc(S(C)(=O)=O)n(-c5ccc(F)cc5)n4)cc3F)c2cc1OC [Ex73, N-(4-((6,7-dimethoxyquinolin-4-yl)oxy)-3-fluorophenyl)-1-(4-fluorophenyl)-5-(methylsulfonyl)-1H-pyrazole-3-carboxamide] the IC50 (JAK3) was no less than 10 µM and the IC50 (MER) was less than 0.5 µM.

In the case of COc1cc2nccc(Oc3ccc(NC(=O)c4cc(S(C)(=O)=O)n(-c5ccc(F)cc5)n4)cc3)c2cc1OC [Ex72, N-(4-((6,7-dimethoxyquinolin-4-yl)oxy)phenyl)-1-(4-fluorophenyl)-5-(methylsulfonyl)-1H-pyrazole-3-carboxamide], the IC50 (JAK3) is reported as no less than 10 µM, the IC50 (MER) is reported as 0.5 to 1 µM and the IC50 (TYK2) is reported as 1 to 10 µM.

COc1cc2nccc(Oc3ccc(NC(=O)c4cc(S(C)(=O)=O)n(-c5ccc(F)cc5)n4)c(F)c3)c2cc1OC [Ex71, N-(4-((6,7-dimethoxyquinolin-4-yl)oxy)-2-fluorophenyl)-1-(4-fluorophenyl)-5-(methylsulfonyl)-1H-pyrazole-3-carboxamide] gave an IC50 (JAK3) of no less than 10 µM, an IC50 (MER) of less than 0.5 µM and an IC50 (TYK2) of no less than 10 µM.
